The target in data set [1] is T1, human GPR40 (Homo sapiens, UniProt O14842).
T1 construct: expressed in transfected cells; host or cells: CHO(dhfr-) cells: line CHO-hGPR40 No. 104 of WO2004/041266, with a stably expressed NFAT-TA-Luc reporter (CHO(dhfr-)/GPR40-NFAT-Luc)
As to the kind of experiment: GPR40 antagonist activity with changes in intracellular calcium concentration as index (NFAT-luciferase reporter, CHO(dhfr-)/GPR40-NFAT-Luc cells). The data set is classed as cell-based. Conditions: CHO cell line expressing human GPR40, NFAT-Luc reporter; GPR40 agonist 3-(4-((6-benzyloxy-2',6'-dimethyl-biphenyl-3-yl)methoxy)phenyl)propanoic acid 40 nM; 4 hr culture; 0.1% fatty acid-free BSA. The source says: Evaluation of GPR40 antagonist activity with changes in intracellular calcium concentration as index
An assay system of GPR40 antagonist was established as follows. In this assay system, as the GPR40 agonist, 3-(4-((6-benzyloxy-2′,6′-dimethyl-biphenyl-3-yl)methoxy)phenyl)propanoic acid (compound described in Example 340 of WO2004/041266) was used.
First, NFAT-TA was cut out from pNFAT-TA-Luc (manufactured by BD Bioscience Clontech) with HindIII and NheI, the recovered fragment was inserted into pGL3 basic neo digested with HindIII and NheI to give plasmid:pGL3 basic neo NFAT-TA-Luc.
This plasmid was used for “the CHO cell line (CHO-hGPR40 No. 104), which was made to express human GPR40” described in WO2004/041266, and a cell line CHO(dhfr-)/GPR40-NFAT-Luc, wherein a reporter gene was stably expressed by a method known per se, was prepared.
This cell line was diluted with a medium (nucleic acid-free MEM (Minimum Essential Medium)—α medium added with dialyzed FBS (Fetal Bovine Serum) to a final concentration of 10%) in such a manner that 2×10^4 cells/100 μl would be contained, dispensed to a white walled 96 well plate (manufactured by Coster) by 100 μl per well, and cultured overnight in a CO2 incubator. Then the medium was removed by suction from the 96 well plate, and a 10 mM test compound-dimethyl sulfoxide (manufactured by Wako Pure Chemical Industries, Ltd.) solution diluted with a medium (nucleic acid-free MEM—α medium added with bovine serum albumin (BSA) free of fatty acid to a final concentration of 0.1%) to each concentration was added by 50 μl per well. Further, 3-(4-((6-benzyloxy-2′,6′-dimethyl-biphenyl-3-yl)methoxy)phenyl)propanoic acid diluted with a medium (nucleic acid-free MEM-α (medium added with BSA free of fatty acid to a final concentration of 0.1%) to a final concentration of 40 nM was added to the 96 well plate by 50 μl per well.
After culture in a CO2 incubator for 4 hr, the culture medium was removed from the 96 well plate. Then, PicaGene (manufactured by TOYO INK MFG. CO., LTD.) was added to the 96 well plate, and the luciferase activity was determined using PerkinElmer ARVO (trade name, manufactured by PerkinElmer), based on which changes in the intracellular calcium concentration were evaluated. After assay of luciferase activity, nonlinear regression analysis was performed using PRISM 3 (trade name, manufactured by GraphPad) and IC50 value was calculated with changes in the intracellular calcium concentration as an index.
In the same manner as in Experimental Example 1, the IC50 value of the compound of the present invention was calculated.
Background: Calcium flux is commonly read through the fluorescence of an indicator in the cells.

Molecules are shown by their SMILES. pIC50: −log10 of the molar value.

Here are results for 32 molecules from patent US20080021069A1, “Receptor Function Regulating Agent” (TAKEDA PHARMACEUTICAL COMPANY LIMITED, priority 2004, published 2008).

For orientation: pIC50 means the negative decadic logarithm of the IC50, by convention in mol/L. For orientation: melting point means the temperature of the solid-liquid transition.

T1 sequence (O14842 whole entry): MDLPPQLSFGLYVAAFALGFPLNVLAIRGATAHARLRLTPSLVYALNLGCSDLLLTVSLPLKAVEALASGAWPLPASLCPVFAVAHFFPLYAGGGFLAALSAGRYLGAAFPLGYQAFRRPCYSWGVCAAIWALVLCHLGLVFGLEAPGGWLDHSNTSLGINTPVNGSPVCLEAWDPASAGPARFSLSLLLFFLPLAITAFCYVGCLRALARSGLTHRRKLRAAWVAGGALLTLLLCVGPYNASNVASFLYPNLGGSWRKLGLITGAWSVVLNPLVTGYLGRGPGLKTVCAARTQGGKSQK

In the case of `FC(F)(F)COc1ccc(-n2c(SCc3ccc(Cl)cc3)nc3cc(Cl)ccc32)cc1` [Example 67, 5-chloro-2-[(4-chlorobenzyl)thio]-1-[4-(2,2,2-trifluoroethoxy)phenyl]-1H-benzimidazole], the pIC50 in data set [1] was above 7.00.
Consider `CCOc1ccc(-n2c(NCc3ccc(C(C)(C)C)cc3)nc3ccc(Cl)cc32)cc1` [Example 51, N-(4-tert-Butylbenzyl)-6-chloro-1-(4-ethoxyphenyl)-1H-benzimidazol-2-amine], for which, in data set [1], the pIC50 is above 7.00.
For `CC(C)Oc1ccc(-n2c(SCc3ccc(Cl)cc3)nc3cc(Cl)ccc32)cc1` [Example 46, 5-Chloro-2-[(4-chlorobenzyl)thio]-1-(4-isopropoxyphenyl)-1H-benzimidazole], the pIC50 in data set [1] is above 7.00.
Still for that read-out and setting: the same measure for `CCOc1ccc(-n2c(NC(C)c3ccc(Br)cc3)nc3ccc(Cl)cc32)cc1` (centres unmarked) [Example 71, N-[1-(4-Bromophenyl)ethyl]-6-chloro-1-(4-ethoxyphenyl)-1H-benzimidazol-2-amine]: above 7.00.
Molecule `Clc1ccc(CSc2nc3cc(Cl)ccc3n2-c2ccc(OCc3ccccc3)cc2)cc1` [Example 133, 1-[4-(Benzyloxy)phenyl]-5-chloro-2-[(4-chlorobenzyl)thio]-1H-benzimidazole] had a melting point of 137 to 138 °C.
The same measure, in the same setting: the same measure for `CCOC(=O)c1ccc2c(c1)nc(SCc1ccc(Cl)cc1)n2-c1ccc(OCC)cc1` [Example 107, Ethyl 2-[(4-chlorobenzyl)thio]-1-(4-ethoxyphenyl)-1H-benzimidazole-5-carboxylate]: 133 to 134 °C; for `Cl.FC(F)(F)Oc1ccc(-n2c(SCc3ccc(Cl)cc3)nc3cc(Cl)ccc32)cc1`: 96 to 100 °C.
Still for that read-out and setting: the same measure for `COc1ccc(-n2c(SCc3cccc(OC)c3)nc3ccc(Cl)cc32)cc1` [Example 5, 6-Chloro-2-[(3-methoxybenzyl)thio]-1-(4-methoxyphenyl)-1H-benzimidazole]: 93 to 94 °C; for `FC(F)(F)Oc1ccc(-n2c(SCc3ccc(Cl)cc3)nc3cc(Cl)c(Cl)cc32)cc1` [Example 142, 5,6-Dichloro-2-[(4-chlorobenzyl)thio]-1-[4-(trifluoromethoxy)phenyl]-1H-benzimidazole]: 111 to 112 °C.
`CC(=O)OCCOc1ccc(-n2c(SCc3ccc(Cl)cc3)nc3ccc(Cl)cc32)cc1` [Example 15, 2-(4-{6-Chloro-2-[(4-chlorobenzyl)thio]-1H-benzimidazol-1-yl}phenoxy)ethyl acetate] displayed a melting point of 126 to 127 °C.
Molecule `COc1ccc(-n2c(SCc3ccc(Cl)cc3)nc3ccc(OC)cc32)cc1` [Example 20, 2-[(4-Chlorobenzyl)thio]-6-methoxy-1-(4-methoxyphenyl)-1H-benzimidazole] had a melting point of 80 to 81 °C.
The same measure, in the same setting: to `OCc1ccc(-n2c(SCc3ccc(Cl)cc3)nc3ccc(Cl)cc32)cc1` [Example 115, (4-{6-Chloro-2-[(4-chlorobenzyl)thio]-1H-benzimidazol-1-yl}phenyl)methanol] belongs 121 to 122 °C; to `CC(C)C(=O)c1ccc(-n2c(SCc3ccc(Cl)cc3)nc3ccc(Cl)cc32)cc1` [Example 41, 1-(4-{6-Chloro-2-[(4-chlorobenzyl)thio]-1H-benzimidazol-1-yl}phenyl)-2-methylpropan-1-one], 162 to 163 °C.
On the same count and under the same terms, the same measure for `CCCCOc1ccc(-n2c(NCc3ccc(Br)cc3)nc3cc(Cl)ccc32)cc1` [Example 88, N-(4-Bromobenzyl)-1-(4-butoxyphenyl)-5-chloro-1H-benzimidazol-2-amine]: 95 to 96 °C; for `CCOc1ccc(-n2c(SCc3ccc(C(=O)OC)cc3)nc3ccc(Cl)cc32)cc1` [Example 37, Methyl 4-({[6-chloro-1-(4-ethoxyphenyl)-1H-benzimidazol-2-yl]thio}methyl)benzoate]: 107 to 109 °C.
The molecule `COc1ccc(-n2c(SCc3ccccc3Cl)nc3ccc(Cl)cc32)cc1` [Example 3, 6-Chloro-2-[(2-chlorobenzyl)thio]-1-(4-methoxyphenyl)-1H-benzimidazole] had a melting point of 94 to 95 °C.
Still for that read-out and setting: to `CCOc1ccc(-n2c(SC(C)c3ccc(Br)cc3)nc3ccc(Cl)cc32)cc1` (centres unmarked) [Example 48, 2-{[1-(4-Bromophenyl)ethyl]thio}-6-chloro-1-(4-ethoxyphenyl)-1H-benzimidazole] belongs 95 to 98 °C; to `Clc1ccc(CSc2nc3ccc(Cl)cc3n2-c2ccc(Cl)cc2)cc1` [Example 26, 6-Chloro-2-[(4-chlorobenzyl)thio]-1-(4-chlorophenyl)-1H-benzimidazole], 156 to 157 °C; to `Clc1ccc(CSc2nc3ccc(Cl)cc3n2-c2ccc(C3=NCCO3)cc2)cc1` [Example 124, 6-Chloro-2-[(4-chlorobenzyl)thio]-1-[4-(4,5-dihydro-1,3-oxazol-2-yl)phenyl]-1H-benzimidazole], 143 to 144 °C.
The molecule `Cl.Clc1ccc(CSc2nc3cc(Cl)ccc3n2-c2ccc(OCC3CC3)cc2)cc1` gave a melting point of 118 to 126 °C.
For `O=C(NCCO)c1ccc(-n2c(SCc3ccc(Cl)cc3)nc3ccc(Cl)cc32)cc1` [Example 43, 4-{6-Chloro-2-[(4-chlorobenzyl)thio]-1H-benzimidazol-1-yl}-N-(2-hydroxyethyl)benzamide], the melting point was 185 to 186 °C.
Same read-out and setting: to `FC(F)(F)COc1ccc(-n2c(NCc3ccc(Cl)cc3)nc3cc(Cl)ccc32)cc1` [Example 91, 5-Chloro-N-(4-chlorobenzyl)-1-[4-(2,2,2-trifluoroethoxy)phenyl]-1H-benzimidazol-2-amine] belongs 138 to 139 °C; to `FC(F)(F)COc1ccc(-n2c(NCc3ccc(Br)cc3)nc3cc(Cl)ccc32)cc1` [Example 90, N-(4-Bromobenzyl)-5-chloro-1-[4-(2,2,2-trifluoroethoxy)phenyl]-1H-benzimidazol-2-amine], 146 to 147 °C.
`FC(F)(F)COc1ccc(-n2c(NCc3ccc(Cl)cc3)nc3ccc(Cl)cc32)cc1` [Example 79, 6-Chloro-N-(4-chlorobenzyl)-1-[4-(2,2,2-trifluoroethoxy)phenyl]-1H-benzimidazol-2-amine] had a melting point of 150 to 151 °C.
Still for that read-out and setting: to `CCCOc1ccc(-n2c(NCc3ccc(Cl)cc3)nc3cc(Cl)ccc32)cc1` [Example 85, 5-Chloro-N-(4-chlorobenzyl)-1-(4-propoxyphenyl)-1H-benzimidazol-2-amine] belongs 122 to 123 °C; to `CCOc1ccc(-n2c(SCc3ccc(Cl)cc3)nc3cccc(Cl)c32)cc1` [Example 138, 7-Chloro-2-[(4-chlorobenzyl)thio]-1-(4-ethoxyphenyl)-1H-benzimidazole], 130 to 131 °C; to `FC(F)(F)COc1ccc(-n2c(NCc3ccc(Cl)cc3)nc3cc(Cl)c(Cl)cc32)cc1` [Example 104, 5,6-Dichloro-N-(4-chlorobenzyl)-1-[4-(2,2,2-trifluoroethoxy)phenyl]-1H-benzimidazol-2-amine], 138 to 139 °C.
`COc1ccc(-n2c(SCc3ccc(C(F)(F)F)nc3)nc3ccc(Cl)cc32)cn1.Cl`: the melting point was in the range of 69 to 76 °C.
On the same count and under the same terms, the same measure for `CN(C)C(=O)c1ccc(-n2c(SCc3ccc(Cl)cc3)nc3ccc(Cl)cc32)cc1` [Example 27, 4-{6-Chloro-2-[(4-chlorobenzyl)thio]-1H-benzimidazol-1-yl}-N,N-dimethylbenzamide]: 139 to 140 °C; for `CCOC(=O)N1CCC(n2c(SCc3ccc(Cl)cc3)nc3ccc(Cl)cc32)CC1` [Example 58, Ethyl 4-{6-chloro-2-[(4-chlorobenzyl)thio]-1H-benzimidazol-1-yl}piperidine-1-carboxylate]: 118 to 119 °C.
Same read-out and setting: the same measure for `CCOCOc1ccc(-n2c(SCc3ccc(Br)cc3)nc3ccc(Cl)cc32)cc1` [Example 32, 2-[(4-Bromobenzyl)thio]-6-chloro-1-[4-(ethoxymethoxy)phenyl]-1H-benzimidazole]: 145 to 146 °C.
On the same count and under the same terms, to `CCCCOc1ccc(-n2c(NCc3ccc(Br)cc3)nc3ccc(Cl)cc32)cc1` [Example 77, N-(4-Bromobenzyl)-1-(4-butoxyphenyl)-6-chloro-1H-benzimidazol-2-amine] belongs 123 to 124 °C.
